Experiments:
[1] = target: T1, HCV polymerase 1A (Δ21 NS5B, H77) (Hepatitis C virus genotype 1a, UniProt P27958); assay: biochemical; details: IC50 1a
T1 construct: 20 to 50 nM Δ21 NS5B
Procedure, shortened: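 Incorporation of 1 μM ^3H-UTP, with 20 μM each of CTP and ATP on 5 nM template RNA, ran 2–4 h at room temperature. Spermine-precipitated product was filtered and scintillation-counted. IC50 came from tight-binding non-linear regression of cpm against inhibitor concentration.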

[2] = test system: genotype 1a-H77 subgenomic replicon cell line; assay: microbe, parasite or virus in culture; format: cell-based, HCV; details: Hepatitis C virus, read-out: EC50 1a
[3] = test system: genotype 1b-Con1 subgenomic replicon cell line; assay: microbe, parasite or virus in culture; format: cell-based, HCV; details: Hepatitis C virus, read-out: EC50 1b
[4] = target: T2, HCV polymerase 1B (Δ21 NS5B, BK) (Hepatitis C virus genotype 1b, UniProt P26663); assay: biochemical
T2 construct: 20 to 50 nM Δ21 NS5B
Procedure, shortened: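 Δ21 NS5B (genotype 1b, BK […]) preincubated 15 min RT with inhibitor, 2 mM MnCl2, pH 7.4, 60–125 μM GTP; started with 20 μM CTP/ATP, 1 μM 3H-UTP, 5 nM template RNA, run 2–4 h RT. Spermine-precipitated RNA filter-captured, scintillation counted; IC50 from tight-binding (Morrison) fit.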

T1 sequence (P27958 2421-2990, stated change not applied): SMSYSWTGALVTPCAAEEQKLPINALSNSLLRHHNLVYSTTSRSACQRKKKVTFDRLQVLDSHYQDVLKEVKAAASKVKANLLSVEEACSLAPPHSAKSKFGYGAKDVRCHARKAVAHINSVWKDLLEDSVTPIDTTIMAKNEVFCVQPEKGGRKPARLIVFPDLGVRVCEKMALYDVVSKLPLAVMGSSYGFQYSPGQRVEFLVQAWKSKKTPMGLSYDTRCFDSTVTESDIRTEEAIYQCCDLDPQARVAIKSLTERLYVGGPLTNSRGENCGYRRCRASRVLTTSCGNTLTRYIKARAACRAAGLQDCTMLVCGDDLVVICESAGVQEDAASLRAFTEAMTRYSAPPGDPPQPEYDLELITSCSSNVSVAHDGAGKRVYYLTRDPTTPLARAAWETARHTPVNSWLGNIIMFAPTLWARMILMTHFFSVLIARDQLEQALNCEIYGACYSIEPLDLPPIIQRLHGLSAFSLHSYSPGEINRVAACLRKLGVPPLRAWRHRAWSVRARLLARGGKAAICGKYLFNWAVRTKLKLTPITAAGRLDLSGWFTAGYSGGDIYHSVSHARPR
T2 sequence (P26663 2420-2989, stated change not applied): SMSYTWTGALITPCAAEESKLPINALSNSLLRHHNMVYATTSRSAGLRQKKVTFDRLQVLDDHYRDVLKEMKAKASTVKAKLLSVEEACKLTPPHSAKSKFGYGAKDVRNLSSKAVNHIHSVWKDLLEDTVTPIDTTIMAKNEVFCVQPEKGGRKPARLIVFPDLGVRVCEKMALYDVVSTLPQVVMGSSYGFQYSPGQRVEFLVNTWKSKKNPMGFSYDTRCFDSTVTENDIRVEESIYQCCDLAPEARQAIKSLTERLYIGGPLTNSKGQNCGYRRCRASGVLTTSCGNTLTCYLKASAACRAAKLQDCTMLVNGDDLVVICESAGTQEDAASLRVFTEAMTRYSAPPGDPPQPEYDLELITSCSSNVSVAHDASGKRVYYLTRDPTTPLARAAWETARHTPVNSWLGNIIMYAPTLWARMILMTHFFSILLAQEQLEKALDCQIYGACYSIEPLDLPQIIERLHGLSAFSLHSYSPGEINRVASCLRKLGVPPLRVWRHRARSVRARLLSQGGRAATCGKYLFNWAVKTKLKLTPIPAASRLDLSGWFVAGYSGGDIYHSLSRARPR

Compound | IC50 [1] [nM] | EC50 [2] [nM] | EC50 [3] [nM] | IC50 [4] [nM]
CC(C)(C)c1cc(N2CCC(=O)NC2=O)cc(NC(=O)c2ccc(CS(C)(=O)=O)cc2)c1O [IA-L4-1.4, N-(3-tert-butyl-5-(2,4-dioxotetrahydropyrimidin-1(2H)-yl)-2-hydroxyphenyl)-4-(methylsulfonylmethyl)benzamide] | > 1000 | > 1000 | > 1000 | > 1000
COc1c(NC(=O)c2ccc(NS(C)(=O)=O)cc2Cl)cc(N2CCC(=O)NC2=O)cc1C(C)(C)C [IA-L4-1.12, N-(3-tert-butyl-5-(2,4-dioxotetrahydropyrimidin-1(2H)-yl)-2-methoxyphenyl)-2-chloro-4-(methylsulfonamido)benzamide] | 10 to 100 | 100 to 1000 | 100 to 1000 | 10 to 100
COc1c(C#Cc2ccc(NS(C)(=O)=O)cc2)cc(N2CCC(=O)NC2=O)cc1C(C)(C)C [IA-L2-1.8, N-(4-((3-tert-butyl-5-(2,4-dioxotetrahydropyrimidin-1(2H)-yl)-2-methoxyphenyl)ethynyl)-phenyl)methanesulfonamide] | < 10 | 10 to 100 | < 10 | < 10
COc1c(C#Cc2ccc(NS(C)(=O)=O)c3ccccc23)cc(-n2ccc(=O)[nH]c2=O)cc1C(C)(C)C [IB-L2-2.1, N-(4-((3-tert-butyl-5-(2,4-dioxo-3,4-dihydropyrimidin-1(2H)-yl)-2-methoxyphenyl)ethynyl)-naphthalen-1-yl)methanesulfonamide] | 10 to 100 | 100 to 1000 | 100 to 1000 | 10 to 100
COc1c(-c2ccc(NC(=O)NS(C)(=O)=O)cc2)cc(-n2ccc(=O)[nH]c2=O)cc1C(C)(C)C [IB-L0-1.7, N-(3′-tert-butyl-5′-(2,4-dioxo-3,4-dihydropyrimidin-1(2H)-yl)-2′-methoxybiphenyl-4-ylcarbamoyl)methanesulfonamide] | 10 to 100 | > 1000 | 100 to 1000 | 10 to 100
CC(C)(C)c1cc(N2CCC(=O)NC2=O)cc(C(=O)Nc2ccccc2S(N)(=O)=O)c1O [IA-L3-1.22, 3-tert-butyl-5-(2,4-dioxotetrahydropyrimidin-1(2H)-yl)-2-hydroxy-N-(2-sulfamoylphenyl)benzamide] | 100 to 1000 | > 1000 | > 1000 | 10 to 100
COc1c(-c2ccc3c(c2)CC[C@@H]3C(C)(C)NS(C)(=O)=O)cc(-n2ccc(=O)[nH]c2=O)cc1C(C)(C)C (single isomer, unassigned) [IB-L0-2.22] | 10 to 100 | 100 to 1000 | 10 to 100 | 10 to 100
Cc1cc(=O)[nH]c(=O)n1-c1cc(C(=O)Nc2ccc(NS(C)(=O)=O)cc2)c(O)c(C(C)(C)C)c1 [IB-L3-1.4, 3-tert-butyl-2-hydroxy-5-(6-methyl-2,4-dioxo-3,4-dihydropyrimidin-1(2H)-yl)-N-(4-(methylsulfonamido)phenyl)benzamide] | 100 to 1000 | > 1000 | > 1000 | 10 to 100
COc1c(C(=O)Nc2ccc(N(C(C)=O)S(C)(=O)=O)cc2)cc(N2CCC(=O)NC2=O)cc1C(C)(C)C [IA-L3-1.69, N-[4-(acetyl-methanesulfonyl-amino)-phenyl]-3-tert-butyl-5-(2,4-dioxo-tetrahydro-pyrimidin-1-yl)-2-methoxy-benzamide] | 100 to 1000 | 100 to 1000 | 10 to 100 | 100 to 1000
COc1c(-c2cccc(/C=N/NS(C)(=O)=O)c2)cc(-n2ccc(=O)[nH]c2=O)cc1C(C)(C)C [IB-L0-1.10, (E)-N′-((3′-tert-butyl-5′-(2,4-dioxo-3,4-dihydropyrimidin-1(2H)-yl)-2′-methoxybiphenyl-3-yl)methylene)methanesulfonohydrazide] | 100 to 1000 | > 1000 | > 1000 | 100 to 1000
COc1c(-c2ccc3c(c2)CC=C3CNS(C)(=O)=O)cc(-n2ccc(=O)[nH]c2=O)cc1-c1ccco1 [IB-L0-2.65, N-((6-(5-(2,4-dioxo-3,4-dihydropyrimidin-1(2H)-yl)-3-(furan-2-yl)-2-methoxyphenyl)-1H-inden-3-yl)methyl)methanesulfonamide] | 10 to 100 | 100 to 1000 | 10 to 100 | < 10
COc1c(C(=O)Nc2ccc(NS(=O)(=O)CC(C)C)cc2)cc(N2CCC(=O)NC2=O)cc1C(C)(C)C [IA-L3-1.52, 3-tert-butyl-5-(2,4-dioxotetrahydropyrimidin-1(2H)-yl)-2-methoxy-N-(4-(2-methylpropyl-sulfonamido)phenyl)benzamide] | 100 to 1000 | > 1000 | 100 to 1000 | 100 to 1000
COc1c(C#Cc2cc(F)c(NS(C)(=O)=O)cc2C)cc(-n2ccc(=O)[nH]c2=O)cc1C(C)(C)C [IB-L2-1.3, N-(4-((3-tert-butyl-5-(2,4-dioxo-3,4-dihydropyrimidin-1(2H)-yl)-2-methoxyphenyl)ethynyl)-2-fluoro-5-methylphenyl)methanesulfonamide] | < 10 | 10 to 100 | < 10 | 10 to 100
CC(C)(C)c1cc(N2CCC(=O)NC2=O)cc(C(=O)Nc2scc(CNS(C)(=O)=O)c2S(N)(=O)=O)c1O [IA-L3-1.89, 3-tert-butyl-5-(2,4-dioxotetrahydropyrimidin-1(2H)-yl)-2-hydroxy-N-(4-(methylsulfonamidomethyl)-3-sulfamoylthiophen-2-yl)benzamide] | 10 to 100 | 100 to 1000 | 10 to 100 | 10 to 100
CC(C)(C)c1cc(N2CCC(=O)NC2=O)cc(C(=O)Nc2ccc(NS(C)(=O)=O)cc2)c1O [IA-L3-1.6, 3-tert-butyl-5-(2,4-dioxotetrahydropyrimidin-1(2H)-yl)-2-hydroxy-N-(4-(methylsulfonamido)phenyl)benzamide] | 10 to 100 | 100 to 1000 | 10 to 100 | < 10
COc1c(C(=O)Nc2ccc(NS(=O)(=O)Cc3ccccc3)cc2)cc(N2CCC(=O)NC2=O)cc1C(C)(C)C [IA-L3-1.57, 3-tert-butyl-5-(2,4-dioxotetrahydropyrimidin-1(2H)-yl)-2-methoxy-N-(4-(phenylmethyl-sulfonamido)phenyl)benzamide] | 10 to 100 | 100 to 1000 | 100 to 1000 | 100 to 1000
COc1c(C(=O)Nc2ccc3c(c2)CC(=O)N3)cc(N2CCC(=O)NC2=O)cc1C(C)(C)C [IA-L3-2.2, 3-tert-butyl-5-(2,4-dioxotetrahydropyrimidin-1(2H)-yl)-2-methoxy-N-(2-oxoindolin-5-yl)benzamide] | 100 to 1000 | > 1000 | > 1000 | 100 to 1000
COc1ccc(CN(c2ccc(NC(=O)c3cc(N4CCC(=O)NC4=O)cc(C(C)(C)C)c3OC)cc2)S(C)(=O)=O)cc1 [IA-L3-1.67, 3-tert-butyl-5-(2,4-dioxotetrahydropyrimidin-1(2H)-yl)-2-methoxy-N-(4-(N-(4-methoxy-benzyl)methylsulfonamido)phenyl)benzamide] | > 1000 | > 1000 | 100 to 1000 | > 1000
COc1ccc(-c2cc(-n3ccc(=O)[nH]c3=O)cc(C(C)(C)C)c2OC)cc1/C=N/NS(C)(=O)=O [IB-L0-1.6, (E)-N′-((3′-tert-butyl-5′-(2,4-dioxo-3,4-dihydropyrimidin-1(2H)-yl)-2′,4-dimethoxybiphenyl-3-yl)methylene)methanesulfonohydrazide] | 100 to 1000 | > 1000 | 100 to 1000 | 100 to 1000
CCc1cc(N2CCC(=O)NC2=O)cc(C(=O)Nc2ccc(NS(C)(=O)=O)cc2)c1OC [IA-L3-1.112, 5-(2,4-dioxotetrahydropyrimidin-1(2H)-yl)-3-ethyl-2-methoxy-N-(4-(methylsulfonamido)phenyl)benzamide] | 100 to 1000 | > 1000 | 100 to 1000 | 100 to 1000
CC(C)(C)c1cc(N2CCC(=O)NC2=O)cc(C(=O)Nc2ccc3c(c2)CS(=O)(=O)C3)c1O [IA-L3-2.5, 3-tert-butyl-N-(2,2-dioxo-1,3-dihydrobenzo[c]thiophen-5-yl)-5-(2,4-dioxotetrahydropyrimidin-1(2H)-yl)-2-hydroxybenzamide] | > 1000 | > 1000 | > 1000 | 100 to 1000
COc1c(C#Cc2ccc(NS(C)(=O)=O)cn2)cc(N2CCC(=O)NC2=O)cc1C(C)(C)C [IA-L2-1.25, N-(6-((3-tert-butyl-5-(2,4-dioxotetrahydropyrimidin-1(2H)-yl)-2-methoxyphenyl)ethynyl)pyridin-3-yl)methanesulfonamide] | < 10 | 100 to 1000 | 10 to 100 | 10 to 100
COc1c(-c2ccc(/C=N/NS(C)(=O)=O)c(F)c2F)cc(N2CCC(=O)NC2=O)cc1C(C)(C)C [IA-L0-1.6, (E)-N′-((3′-tert-butyl-5′-(2,4-dioxotetrahydropyrimidin-1(2H)-yl)-2,3-difluoro-2′-methoxybiphenyl-4-yl)methylene)methanesulfonohydrazide] | 10 to 100 | 100 to 1000 | 10 to 100 | 10 to 100
COc1c(/C=C\c2ccc(NS(C)(=O)=O)cc2)cc(N2CCC(=O)NC2=O)cc1C(C)(C)C [IA-L1-1.10, (Z)-N-(4-(3-tert-butyl-5-(2,4-dioxotetrahydropyrimidin-1(2H)-yl)-2-methoxystyryl)phenyl)methanesulfonamide] | 10 to 100 | 10 to 100 | 10 to 100 | 10 to 100
